Experimental findings from ChEMBL document CHEMBL1147565, “Imidazo[1,2-a]pyridines. Part 2: SAR and optimisation of a potent and selective class of cyclin-dependent kinase inhibitors” (Bioorg Med Chem Lett, 2004) are described below.

Experiment [1] has as its target Cyclin-dependent kinase 2 (Homo sapiens, UniProt P24941). Nature of the experiment: Inhibitory concentration against cyclin-dependent kinase 2.
The test system of experiment [2] is MCF7. Briefly: Inhibitory activity against BrdU incorporation to MCF-7 cell line following 3 day exposure to compound. It counts as functional, cell-based. The conditions noted are these: Homo sapiens, MCF7, 72 h.
Experiment [3] relates to MCF7. Briefly: Inhibition of cyclin-dependent kinase phosphorylation of S249-T252 of Rb protein in MCF-7 cells. It counts as functional, cell-based. To be noted: Homo sapiens.
In experiment [4] the target is Cyclin-dependent kinase 4 (Homo sapiens, UniProt P11802). Briefly: Inhibition of Cyclin-dependent kinase 4.
Chain of Cyclin-dependent kinase 4 (P11802 whole entry): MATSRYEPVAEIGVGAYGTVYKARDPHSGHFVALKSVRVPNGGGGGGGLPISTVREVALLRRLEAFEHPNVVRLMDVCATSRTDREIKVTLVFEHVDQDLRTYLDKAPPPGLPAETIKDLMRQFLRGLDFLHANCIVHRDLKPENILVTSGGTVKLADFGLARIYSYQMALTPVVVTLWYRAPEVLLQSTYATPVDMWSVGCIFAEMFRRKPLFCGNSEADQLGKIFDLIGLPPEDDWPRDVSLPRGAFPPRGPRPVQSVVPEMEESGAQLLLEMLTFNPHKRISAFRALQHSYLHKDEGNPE
The target in experiment [5] is Cyclin-dependent kinase 1 (Homo sapiens, UniProt P06493). Briefly: Inhibition of Cyclin-dependent kinase 1.
Chain of Cyclin-dependent kinase 1 (P06493 whole entry): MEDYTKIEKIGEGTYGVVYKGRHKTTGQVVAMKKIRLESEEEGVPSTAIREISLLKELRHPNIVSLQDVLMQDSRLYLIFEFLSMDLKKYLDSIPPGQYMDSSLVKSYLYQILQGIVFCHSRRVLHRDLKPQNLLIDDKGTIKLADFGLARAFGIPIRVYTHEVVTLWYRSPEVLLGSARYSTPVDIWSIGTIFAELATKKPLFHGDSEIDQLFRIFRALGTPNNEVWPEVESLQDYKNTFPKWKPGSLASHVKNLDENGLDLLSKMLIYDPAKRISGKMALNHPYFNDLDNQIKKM

For the compound `CNS(=O)(=O)c1ccc(Nc2nccc(-c3cnc4ccccn34)n2)cc1`, the values for the 50% inhibitory concentration (IC50) (in experiment [1]; in the experiment on MCF7 [2]) were less than 3 nM and 260 nM, respectively.

`Cc1nc2ccccn2c1-c1ccnc(Nc2ccccc2Cl)n1` registered an IC50 in experiment [1] of 8800 nM.

On to `COCCNS(=O)(=O)c1ccc(Nc2ncc(Sc3ccccc3)c(-c3cnc4ccccn34)n2)cc1`, for which the IC50 in experiment [1] is more than 10000 nM.

In the case of `CN(C)CCNS(=O)(=O)c1ccc(Nc2nccc(-c3cnc4ccccn34)n2)cc1`, the IC50 is 50 nM in the experiment on MCF7 [3]; 260 nM in experiment [4]; 5 nM in experiment [1]; 70 nM in the experiment on MCF7 [2]; 15 nM in experiment [5].

In the case of `CN(C)CCCNS(=O)(=O)c1ccc(Nc2nccc(-c3cnc4ccccn34)n2)cc1`, the IC50 in experiment [1] was less than 3 nM; in the experiment with MCF7 [2], 70 nM.

As to `COCCCNS(=O)(=O)c1ccc(Nc2nccc(-c3cnc4ccccn34)n2)cc1`, the IC50 in the experiment with MCF7 [3] came to 400 nM; in experiment [4], 3100 nM; in experiment [1], 4 nM; in the experiment on MCF7 [2], 600 nM; in experiment [5] it was 6 nM.

`Clc1cccc(Nc2nccc(-n3cnc4ccccc43)n2)c1` gave an IC50 in experiment [1] of 680 nM.

As for `Clc1cccc(Nc2nccc(-c3cnc4ccccn34)n2)c1`, half-maximal inhibition in experiment [1] (IC50) was put at 5 nM.

`COCCNS(=O)(=O)c1ccc(Nc2nccc(-c3cnc4ccccn34)n2)cc1`: the IC50 amounted to 12 nM in experiment [1] and 390 nM in the experiment with MCF7 [2].

Take `CN(C)CCCN(C)S(=O)(=O)c1ccc(Nc2nccc(-c3cnc4ccccn34)n2)cc1`: the IC50 amounted to 5 nM in experiment [1] and 440 nM with MCF7 [2].

In turn, `CCSc1ccc2ncc(-c3ccnc(Nc4ccc(S(=O)(=O)NCCOC)cc4)n3)n2c1` had an IC50 in experiment [1] of less than 3 nM.

As for `COCCNS(=O)(=O)c1ccc(Nc2nccc(-c3cnc4ccc(C#N)cn34)n2)cc1`, in experiment [1], the IC50 was less than 3 nM.

In experiment [1], `Cc1nc2ccccn2c1-c1ccnc(Nc2ccc(S(N)(=O)=O)cc2)n1` displayed an IC50 of 38 nM.

As for `Cc1nc2ccccn2c1-c1ccnc(Nc2cccc(Cl)c2)n1`, the IC50 in experiment [1] is 150 nM.

As to `COCCNS(=O)(=O)c1ccc(Nc2nccc(-c3cnc4ccc(Sc5ccccc5)cn34)n2)cc1`, the IC50 in experiment [1] was 16 nM.

The compound `c1ccc(Nc2nccc(-c3cnc4ccccn34)n2)cc1` returned an IC50 in experiment [1] of less than 3 nM.

In experiment [1], `COCCNS(=O)(=O)c1ccc(Nc2ncc(Cl)c(-c3cnc4ccccn34)n2)cc1` returned an IC50 of less than 3 nM.

As to `COCCNS(=O)(=O)c1ccc(Nc2nccc(-c3cnc4ccc(Br)cn34)n2)cc1`, in experiment [1], the IC50 was less than 3 nM.

For `COCCNS(=O)(=O)c1ccc(Nc2ncc(Br)c(-c3cnc4ccccn34)n2)cc1`, the IC50 in experiment [1] was less than 3 nM.

As for `Cc1nc2ccccn2c1-c1ccnc(Nc2ccccc2)n1`, half-maximal inhibition in experiment [1] (IC50) required 210 nM.

Turning to `Cc1nc2ccccn2c1-c1ccnc(Nc2ccc(Cl)cc2)n1`, the IC50 in experiment [1] stood at 620 nM.

`NS(=O)(=O)c1ccc(Nc2nccc(-c3cnc4ccccn34)n2)cc1` came in with an IC50 in experiment [1] of less than 3 nM.
